# What was measured:
# DHL-6 cells = assay: Membrane markers of B-lymphocyte maturation by flow cytometry; assay type: cell-based; settings: brusatol (5 ng/ml), control 197.5
# Protocol: (§1) Cell lines were tested using a 4-day incubation protocol, unless otherwise specified.
# (§2) 3) Determination of cell surface antigen by flow cytometry. Cells (10^6) were washed with PBS and then incubated for 30 min at room temperature with respective monoclonal antibodies, washed with 20 volumes of diluent (PBS with 0.1% sodium azide and 1% BSA), and resuspended in 0.5 ml of fresh diluent for evaluation. Necrotic cells were excluded from the analysis by propidium iodide (PI) staining. The following mAbs (Sigma, St. Louis, Mo.) were used to assess the maturation level of myeloid cell lines: antiCD15 (Leu M1), antiCD-11b (OKM1), antiCD14 and antiCD13. The following mAbs (Sigma, St. Louis, Mo.) were used to assess the maturation level of lymphocytic cell lines: antiCD20, antiHLA-DR and antikappa light chain.
# (§3) Finally, various membrane markers of B-lymphocyte maturation (i.e., CD20, superficial light chain kappa and HLA-DR) in SUPB13, RS4;11, Reh, Daudi and DHL-6 were analyzed. Few changes were observed, but brusatol induced a small increase in CD20 with DHL-6 cells (197.5 control vs. 225.3 brusatol (5 ng/ml), specific mean fluorescence intensity), and a larger increase of HLA-DR in Daudi cells (92.5 control vs. 244.9 brusatol (10 ng/ml), specific mean fluorescence intensity).
# Daudi cells = assay: as above; assay type: cell-based; settings: brusatol (10 ng/ml), control 92.5
# Protocol: as §1, §2, §3
# Kasumi-1 [1] = assay: Cytotoxicity, viability by Trypan blue exclusion; settings: four days
# Protocol: (§6) HL-60, K562, U937, Reh and Daudi cells were obtained from the American Type Culture Collection (Rockville, Md.). Kasumi-1, NB4, BV173, SUPB13, and RS4;11 cells were provided by the Section of Hematology/Oncology, University of Illinois College of Medicine, Chicago, Ill. All cell lines were maintained in suspension culture using RPMI 1640 medium supplemented with 10% heat-inactivated fetal bovine serum, 100 units of penicillin/ml and 100 μg of streptomycin/ml at 37° C. in a humidified atmosphere of 5% CO2 in air. All cells were routinely tested for mycoplasma contamination.
# (§7) Cellular viability was monitored by Trypan blue exclusion. Inhibition of [3H]thymidine incorporation into DNA was determined to assess the level of cell proliferation as well as DNA synthesis inhibition. […] The filters were counted using a Microbeta™ liquid scintillation counter (Wallac, Turku, Finland) with scintillation fluid. Finally, the percentage of [3H]thymidine incorporation per 10^6 cells was calculated by dividing the dpm of sample-treated cells by the dpm of DMSO-treated cells.
# (§8) ^aViability was determined by Trypan blue exclusion in duplicate samples. […] Results are expressed as median inhibitory cell concentrations of two independent experiments (±standard deviations).
# [2] = Cytotoxicity, viability by Trypan blue exclusion; settings: human, Kasumi-1 cells, Cytotoxicity (IC50, ng/ml), four days
# Protocol: as §6, §7, §8
# NB4 = assay: Cell cycle effects, DNA content by flow cytometry; assay type: cell-based; settings: Brusatol (25 ng/ml), 24 h
# Protocol: (§4) About 10^6 cells from each sample were collected and washed twice with ice-cold PBS, fixed in 70% ethanol, and stored at 4° C. until analysis. The cells were stained with PI (50 μg/ml), treated with DNase-free RNase (10 μg/ml), and subjected to DNA content analysis using an EPICS Coulter flow cytometer. At least 10,000 cells were counted for each sample. The percentage of apoptotic cells was calculated by measuring the area under the sub-diploid (DNA <2 N) peak in the plot of cell number against cellular DNA content.
# (§5) Cells were treated with solvent or brusatol (25 ng/ml) for 24 h, fixed in ethanol and stained with PI for flow cytometric analysis as described under “Materials and methods”. At least 10,000 cells were counted. Results are presented as the mean of triplicate samples (±standard deviation). G1=Gap1, S=Synthesis, G2/M=Gap2+Mitosis, Ap=sub-G1 apoptotic peak.
# RS4,11 = assay: Cell cycle effects, DNA content by flow cytometry; assay type: cell-based; settings: Brusatol (25 ng/ml), 24 h
# Protocol: as §4, §5
# Kasumi-1 [3] = assay: Cell cycle effects, DNA content by flow cytometry; assay type: cell-based; settings: Brusatol (25 ng/ml), 24 h
# Protocol: as §4, §5
# U937 = assay: Cell cycle effects, DNA content by flow cytometry; assay type: cell-based; settings: Brusatol (25 ng/ml), 24 h
# Protocol: as §4, §5
# K562 = assay: Cell cycle effects, DNA content by flow cytometry; assay type: cell-based; settings: Brusatol (25 ng/ml), 24 h
# Protocol: as §4, §5
# SUPB13 [4] = assay: Cell cycle effects, DNA content by flow cytometry; assay type: cell-based; settings: Brusatol (25 ng/ml), 24 h
# Protocol: as §4, §5
# BV173 = assay: Cell cycle effects, DNA content by flow cytometry; assay type: cell-based; settings: Brusatol (25 ng/ml), 24 h
# Protocol: as §4, §5
# Reh = assay: Cell cycle effects, DNA content by flow cytometry; assay type: cell-based; settings: Brusatol (25 ng/ml), 24 h
# Protocol: as §4, §5
# HL-60 cells = assay: Membrane phenotype, cell surface antigen by flow cytometry; assay type: cell-based, human; settings: Brusatol 25 ng/ml, 4-day protocol
# Protocol: as §1, §2
# Cells were induced to differentiate with the indicated concentrations of brusatol using a 4-day protocol and then analyzed for membrane markers of differentiation as described under “Materials and methods”. Results are expressed as the specific mean fluorescence intensity (ratio of antigen antibody flourescence over isotype antibody fluorescence), and represents the mean of two independent studies.
# [5] = Cytotoxicity, viability by Trypan blue exclusion; settings: human, SUPB13 cells, Cytotoxicity (IC50, ng/ml), four days
# Protocol: (§9) All cell lines were maintained in suspension culture using RPMI 1640 medium supplemented with 10% heat-inactivated fetal bovine serum, 100 units of penicillin/ml and 100 μg of streptomycin/ml at 37° C. in a humidified atmosphere of 5% CO2 in air.
# (§10) Cellular viability was monitored by Trypan blue exclusion.
# as §8
# SUPB13 [6] = assay: Cytotoxicity, viability by Trypan blue exclusion; settings: four days
# Protocol: as §9, §10, §8
# HL-60 = assay: Cell cycle effects, DNA content by flow cytometry; assay type: cell-based, human; settings: Brusatol (25 ng/ml), 24 h
# Protocol: as §4, §5
# [7] = tested on: patients with various types of solid tumors; settings: phase I clinical trials; cited from earlier work
compound,measurement,setting,value
"COC(=O)[C@@]12OC[C@]34[C@H]([C@@H](O)[C@@H]1O)[C@@]1(C)CC(=O)C(O)=C(C)[C@@H]1C[C@H]3OC(=O)[C@H](OC(=O)C=C(C)C)[C@@H]24 [compound 1, brusatol]","CD20, specific mean fluorescence intensity",DHL-6 cells,225.3
same,"HLA-DR, specific mean fluorescence intensity",Daudi cells,244.9
same,"Cytotoxicity (IC50, ng/ml)",Kasumi-1 [1],75 ± 5.1 ng/mL
same,IC50 at 4 days,[2],0.05 to 0.1 µg/mL
same,Ap (sub-G1 apoptotic peak),NB4,Ap = 37.2 ± 0.8
same,G1,NB4,G1 = 45.3 ± 0.8
same,G2/M,NB4,G2/M = 7.3 ± 0.7
same,S,NB4,S = 47.4 ± 0.1
same,G1,"RS4,11",G1 = 50.9 ± 0.4
same,G2/M,"RS4,11",G2/M = 3.4 ± 0.1
same,S,"RS4,11",S = 45.7 ± 0.2
same,G1,Kasumi-1 [3],G1 = 77.4 ± 1.8
same,G2/M,Kasumi-1 [3],G2/M = 4.5 ± 0.2
same,S,Kasumi-1 [3],S = 18.1 ± 2.1
same,G1,U937,G1 = 45.4 ± 1.8
same,G2/M,U937,G2/M = 8.0 ± 1.6
same,S,U937,S = 46.6 ± 0.2
same,G1,K562,G1 = 46.2 ± 0.6
same,G2/M,K562,G2/M = 5.6 ± 0.4
same,S,K562,S = 48.2 ± 0.3
same,G1,SUPB13 [4],G1 = 61.9 ± 2.1
same,G2/M,SUPB13 [4],G2/M = 8.7 ± 0.3
same,S,SUPB13 [4],S = 29.4 ± 1.8
same,Ap (sub-G1 apoptotic peak),BV173,Ap = 15.6 ± 0.2
same,G1,BV173,G1 = 57.0 ± 0.4
same,G2/M,BV173,G2/M = 7.1 ± 0.1
same,S,BV173,S = 35.9 ± 0.6
same,G1,Reh,G1 = 78.8 ± 1.2
same,G2/M,Reh,G2/M= 3.2 ± 0.4
same,S,Reh,S = 18.0 ± 0.6
same,"CD11b, specific mean fluorescence intensity",HL-60 cells,2.2 ± 0.5
same,"CD13, specific mean fluorescence intensity",HL-60 cells,266.1 ± 55.7
same,"CD14, specific mean fluorescence intensity",HL-60 cells,1.0
same,"CD15, specific mean fluorescence intensity",HL-60 cells,177.1 ± 8.7
same,IC50 at 4 days,[5],< 0.025 µg/mL
same,"Cytotoxicity (IC50, ng/ml)",SUPB13 [6],20 ± 1.2 ng/mL
same,G1,HL-60,G1 = 68.7 ± 0.9
same,G2/M,HL-60,G2/M = 18.3 ± 1.1
same,S,HL-60,S = 13.0 ± 1.0
"COC(=O)[C@@]12OC[C@]34[C@H]([C@@H](O)[C@@H]1O)[C@@]1(C)CC(=O)C(O)=C(C)[C@@H]1C[C@H]3OC(=O)[C@H](OC(=O)/C=C(\C)C(C)C)[C@@H]24 [compound 2, bruceantin]",hematologic toxicity,[7],moderate to insignificant
